{
  "source": "patent US20160310463A1",
  "about": "“LIQUID STATIN FORMULATION” (priority 2009, published 2016)",
  "key": {"[1]": {"system": "children with HeFH", "settings": "cited from earlier work"}, "[2]": {"system": "pediatric HeFH patients", "settings": "cited from earlier work"}, "[3]": {"system": "children younger than 17 years of age with hyperlipidemia", "settings": "mean dosage 16 mg once daily, cited from earlier work"}, "[4]": {"test": "Simvastatin solubility screening, visual observation", "format": "physicochemical", "settings": "for Visual Appearance: 23° C.", "protocol": "The study was performed by visual observation of the samples at various time points followed by chemical testing of the centrifuged supernatant. Ten vehicles chosen for the solubility screen are referenced in Table 2 below. One (1 g) of each vehicle was dispensed into an Eppendorf tube. […] Samples not visually soluble, after about 21 hours, were heated to 60° C. while being mixed for 1 hour. Samples were allowed to reach room temperature, and visual observations were recorded. All samples were centrifuged for 10 minutes at 10,000 RPM."}, "[5]": {"system": "children with HeFH", "test": "Dirisamer et al.: low-dose simvastatin in children with HeFH", "format": "in vivo, human", "protocol": "If the range of LDL-C of 150-170 mg/dl was not reached within the first 8 weeks, the daily dosage was increased stepwise up to 20 mg. The cut-off level for LDL-C<170 mg/dl (range 150-170 mg/dl) was determined according to the high mean concentrations of LDL-C of the study population."}, "[6]": {"settings": "pH of 7.0; cited from earlier work"}, "[7]": {"settings": "cited from earlier work"}, "[8]": {"settings": "adults; estimate for the five statins together; cited from earlier work"}, "[9]": {"system": "adrenal and gonadal steroidogenesis", "settings": "humans, up to 80 mg/day, basal conditions; cited from earlier work"}, "[10]": {"system": "testicular endocrine function", "settings": "dogs, very high doses; cited from earlier work"}, "[11]": {"system": "children and adolescents", "settings": "cited from earlier work"}, "[12]": {"system": "adrenocortical and testicular steroidogenesis", "settings": "males age 18-50 years, long-term therapy, cited from earlier work"}, "[13]": {"system": "HeFH children and adolescents", "settings": "5 mg and 10 mg pravastatin; cited from earlier work"}},
  "note": "Counter-ions that a name gives are not always drawn. Like-named read-outs stand apart in the source and are kept apart here.",
  "data": [
    {"compound": "CCC(C)(C)C(=O)O[C@@H]1C[C@H](C)C=C2C=C[C@@H](C)[C@@H](CC[C@@H]3C[C@H](O)CC(=O)O3)[C@@H]21", "note": "(relative stereo) [Simvastatin, butanoic acid, 2,2-dimethyl-,1,2,3,7,8,8a-hexahydro-3,7-dimethyl-8-[2-(tetrahydro-4-hydroxy-6-oxo-2H-pyran-2-yl)-ethyl]-1-naphthalenyl ester, [1S-[1α,3α,7β,8β(2S*,4S*),-8aβ]]]", "values": [
      {"measurement": "patients reaching the recommended therapeutic level (LDL-C<170 mg/dl) within the first period", "setting": "[1]; 5 mg simvastatin daily, nine patients started with 5 mg", "result": "four"},
      {"measurement": "percentage decrease in LDL-C concentration", "setting": "[1]; 5 mg simvastatin period", "result": 25, "unit": "%"},
      {"measurement": "percentage decrease in total cholesterol", "setting": "[1]; 5 mg simvastatin period", "result": 19, "unit": "%"},
      {"measurement": "patients reaching the recommended therapeutic level within the first period", "setting": "[1]; 10 mg simvastatin daily, 11 patients started with 10 mg", "result": "Six"},
      {"measurement": "percentage decrease in LDL-C concentration", "setting": "[1]; 10 mg simvastatin period", "result": 30, "unit": "%"},
      {"measurement": "percentage decrease in total cholesterol", "setting": "[1]; 10 mg simvastatin period", "result": 26, "unit": "%"},
      {"measurement": "percentage decrease in LDL-C concentration", "setting": "[1]; 20 mg simvastatin period", "result": 36, "unit": "%"},
      {"measurement": "percentage decrease in total cholesterol", "setting": "[1]; 20 mg simvastatin period", "result": 29, "unit": "%"},
      {"measurement": "side effects that could be related to simvastatin", "setting": "[1]; 5, 10 and 20 mg dosage periods", "result": "few and equally distributed among the three dosage periods"},
      {"measurement": "subjects with abnormal levels of routine safety parameters (CK, ALAT, GGT)", "setting": "[1]; group of 20 girls and boys", "result": "three"},
      {"measurement": "change in total-C, LDL-C and ApoB compared with placebo", "setting": "[2]; at 24 weeks", "result": "significant (P<0.001) reductions"},
      {"measurement": "change in HDL-C and ApoA1", "setting": "[2]; only significant relative to placebo at week 24 (P<0.05)", "result": "increased for all weeks"},
      {"measurement": "results from the extension at 48 weeks", "setting": "[2]; simvastatin 40 mg", "result": "comparable to those observed in the base study"},
      {"measurement": "change in triglycerides", "setting": "[2]; weeks 8, 16, and 48", "result": "Significant reductions"},
      {"measurement": "fall of circulating LDL-C at week 104", "setting": "[3]; in 1 patient", "result": "15-20%"},
      {"measurement": "fall of circulating LDL-C at week 104", "setting": "[3]; in 7 patients", "result": "40-60%"},
      {"measurement": "fall of circulating LDL-C at week 104", "setting": "[3]; in 8 patients", "result": "20-40%"},
      {"measurement": "Visual Appearance", "setting": "[4]; 2.5 mg in 1 g 5% SLS in Water, 30 Min to ~21 Hrs", "result": "Clear colorless liquid w/ air bubbles"},
      {"measurement": "Visual Appearance", "setting": "[4]; 2.5 mg in 1 g Captex 500 P, 30 Min to ~21 Hrs", "result": "Clear colorless liquid"},
      {"measurement": "Visual Appearance after Application of Heat (60° C.) for 1 Hour and Cooled to Room Temperature", "setting": "[4]; 2.5 mg in 1 g E. Pure Water", "result": "Hazy liquid w/ white powder and air bubbles"},
      {"measurement": "Visual Appearance", "setting": "[4]; 2.5 mg in 1 g E. Pure Water, 30 Min to ~21 Hrs", "result": "Cloudy liquid w/ white powder"},
      {"measurement": "Visual Appearance after Application of Heat (60° C.) for 1 Hour and Cooled to Room Temperature", "setting": "[4]; 2.5 mg in 1 g Glycerine", "result": "Slightly hazy liquid w/ some white powder"},
      {"measurement": "Visual Appearance", "setting": "[4]; 2.5 mg in 1 g Glycerine, Initial to ~21 Hrs", "result": "Stiff clear, colorless liquid w/ white powder"},
      {"measurement": "Visual Appearance", "setting": "[4]; 2.5 mg in 1 g Labrafil M 2125 CS, merged cell, Initial to about 2 Hrs", "result": "Yellow liquid w/ white powder"},
      {"measurement": "Visual Appearance", "setting": "[4]; 2.5 mg in 1 g Labrasol, 30 Min to ~21 Hrs", "result": "Pale yellow liquid"},
      {"measurement": "Visual Appearance", "setting": "[4]; 2.5 mg in 1 g PEG 400, 30 Min to ~21 Hrs", "result": "Clear colorless liquid"},
      {"measurement": "Visual Appearance after Application of Heat (60° C.) for 1 Hour and Cooled to Room Temperature", "setting": "[4]; 2.5 mg in 1 g Polysorbate 80", "result": "Clear yellow liquid w/ some white residue"},
      {"measurement": "Visual Appearance", "setting": "[4]; 2.5 mg in 1 g Polysorbate 80, Initial to ~21 Hrs", "result": "Yellow liquid w/ white powder"},
      {"measurement": "Visual Appearance", "setting": "[4]; 2.5 mg in 1 g Propylene Glycol, 30 Min to ~21 Hrs", "result": "Clear colorless liquid"},
      {"measurement": "higher LDL-C reduction compared with other statins tested in young HeFH patients", "setting": "[5]; 5 mg and 10 mg simvastatin period", "result": "~10", "unit": "%"},
      {"measurement": "share of the mean LDL-C reduction of the highest dose (20 mg/day) reached by the lowest dose (5 mg/day)", "setting": "[5]; in vivo", "result": "more than 70%"}
    ]},
    {"compound": "CC(C)c1nc(N(C)S(C)(=O)=O)nc(-c2ccc(F)cc2)c1/C=C/C(O)C[C@@H](O)CC(=O)O", "note": "(stereo in doubt) [Rosuvastatin calcium, bis[(E)-7-[4-(4-fluorophenyl)-6-isopropyl-2-[methyl(methylsulfonyl)amino]pyrimidin-5-yl](3R,5S)-3,5-dihydroxyhept-6-enoic acid] calcium salt]", "values": [
      {"measurement": "partition coefficient (octanol/water)", "setting": "[6]", "result": 0.13},
      {"measurement": "solubility", "setting": "[7]; in ethanol", "result": "slightly soluble"},
      {"measurement": "solubility", "setting": "[7]; in water and methanol", "result": "sparingly soluble"}
    ]},
    {"compound": "CC(C)c1c(C(=O)Nc2ccccc2)c(-c2ccccc2)c(-c2ccc(F)cc2)n1CC[C@@H](O)C[C@@H](O)CC(=O)O", "note": "[Atorvastatin, (3R, 5R)-7-[2-(4-fluorophenyl)-3-phenyl-4-(phenylcarbamoyl)-5-(propan-2-yl)-1H-pyrrol-1-yl]-3,5-dihydroxyheptanoic acid]", "values": [
      {"measurement": "occurrence of rhabdomyolysis", "setting": "[8]", "result": 3, "unit": "per 100 000 person-years"}
    ]},
    {"compound": "COCc1c(C(C)C)nc(C(C)C)c(/C=C/[C@@H](O)C[C@@H](O)CC(=O)O)c1-c1ccc(F)cc1", "note": "[Cerivastatin sodium]", "values": [
      {"measurement": "solubility", "setting": "[7]; in acetone", "result": "very slightly soluble"},
      {"measurement": "solubility", "setting": "[7]; in water, methanol, and ethanol", "result": "soluble"}
    ]},
    {"compound": "CC[C@H](C)C(=O)O[C@H]1C[C@@H](C)C=C2C=C[C@H](C)[C@H](CC[C@@H]3C[C@@H](O)CC(=O)O3)[C@H]21", "note": "[Lovastatin, (1S,3R,7S,8S,8aR)-8-{2-[(2R,4R)-4-hydroxy-6-oxooxan-2-yl]ethyl}-3,7-dimethyl-1,2,3,7,8,8a-hexahydronaphthalen-1-yl (2S)-2-methylbutanoate]", "values": [
      {"measurement": "effect on adrenal and gonadal steroidogenesis", "setting": "[9]", "result": "no effect"},
      {"measurement": "effect on testicular endocrine function", "setting": "[10]", "result": "reduction in testicular endocrine function"},
      {"measurement": "LDL-C reduction", "setting": "[11]; 10 mg lovastatin", "result": 21, "unit": "%"},
      {"measurement": "LDL-C reduction", "setting": "[11]; 20 mg lovastatin", "result": 24, "unit": "%"},
      {"measurement": "share of the mean LDL-C reduction of the highest dose of 40 reached by the lowest dose (10 mg/day)", "setting": "[11]; in vivo", "result": "more than 50%"},
      {"measurement": "occurrence of rhabdomyolysis", "setting": "[8]", "result": 3, "unit": "per 100 000 person-years"}
    ]},
    {"compound": "CC[C@H](C)C(=O)O[C@H]1C[C@H](O)C=C2C=C[C@H](C)[C@H](CC[C@@H](O)C[C@@H](O)CC(=O)O)[C@H]21", "note": "[Pravastatin, (bR,dR,1S,2S,6S,8S,8aR)-1,2,6,7,8,8a-Hexahydro-b,d,6-trihydroxy-2-methyl-8-[(2S)-2-methyl-1-oxobutoxy]-1-naphthaleneheptanoic acid monosodium salt]", "values": [
      {"measurement": "interference with adrenal and testicular steroidogenesis", "setting": "[12]; maximum stimulation", "result": "did not interfere"},
      {"measurement": "serum testosterone levels", "setting": "[12]", "result": "remained unchanged"},
      {"measurement": "occurrence of rhabdomyolysis", "setting": "[8]", "result": 3, "unit": "per 100 000 person-years"},
      {"measurement": "average decrease in LDL-C concentration", "setting": "[13]", "result": 23, "unit": "%"}
    ]},
    {"compound": "[R.,S.-(E)]-(±)-7-[3-(4-fluorophenyl)-1-(1-methylethyl)-1H-indol-2-yl]-3,5-dihydroxy-6-heptenoic acid, monosodium salt [Fluvastatin]", "values": [
      {"measurement": "occurrence of rhabdomyolysis", "setting": "[8]", "result": 3, "unit": "per 100 000 person-years"}
    ]}
  ]
}
